According to patent US20200405697A1, “Antitumor Agent” (Taiho Pharmaceutical Co., Ltd, priority 2017, published 2020):

Key:
[1] = biological target: T1, human RNR (histidine tagged human M1 and human M2 proteins) (Homo sapiens, UniProt P23921); assay: Human RNR inhibition effect (dCDP formation from CDP); assay type: biochemical; settings: 10 μM CDP, 37° C. for 30 minutes, read-out: RNR inhibitory activity IC50
T1 construct: made in house; host or cells: Escherichia coli
T1 sequence (P23921 1-792): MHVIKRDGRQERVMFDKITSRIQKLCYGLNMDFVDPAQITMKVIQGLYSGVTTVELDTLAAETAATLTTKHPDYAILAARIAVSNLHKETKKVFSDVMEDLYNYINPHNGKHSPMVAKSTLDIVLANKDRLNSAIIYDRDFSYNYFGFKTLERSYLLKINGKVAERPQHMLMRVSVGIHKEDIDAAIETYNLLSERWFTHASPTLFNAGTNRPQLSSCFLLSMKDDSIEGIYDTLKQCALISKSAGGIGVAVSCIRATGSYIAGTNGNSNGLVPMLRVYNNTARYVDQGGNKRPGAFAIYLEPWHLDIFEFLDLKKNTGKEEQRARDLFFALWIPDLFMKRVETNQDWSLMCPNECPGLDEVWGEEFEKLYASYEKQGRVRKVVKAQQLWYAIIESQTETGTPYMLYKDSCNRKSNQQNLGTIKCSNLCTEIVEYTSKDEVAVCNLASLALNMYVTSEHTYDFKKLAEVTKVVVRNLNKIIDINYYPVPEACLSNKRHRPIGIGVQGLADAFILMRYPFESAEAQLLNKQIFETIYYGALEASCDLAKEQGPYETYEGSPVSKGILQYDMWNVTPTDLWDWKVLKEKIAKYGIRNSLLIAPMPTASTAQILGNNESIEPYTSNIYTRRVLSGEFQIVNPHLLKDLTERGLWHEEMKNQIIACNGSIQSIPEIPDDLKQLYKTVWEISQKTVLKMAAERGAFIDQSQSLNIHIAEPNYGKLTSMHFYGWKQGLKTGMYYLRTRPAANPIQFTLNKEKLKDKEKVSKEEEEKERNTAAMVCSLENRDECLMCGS
Outline: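 His-tagged human M1 (isoform 1) and N-terminal 59-aa-truncated M2 (isoform 2), E. coli-expressed, Ni-purified, preincubated 20 min with compound (1% DMSO). Reaction with 10 μM CDP, 2 mM ATP, 0.24 mM NADPH, 6 mM DTT, 4 mM Mg acetate, 100 mM KCl, 50 mM HEPES pH 7.2, 30 min at 37° C. dCDP formed quantified by reverse-phase HPLC after heat stop.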

MV-4-11 = assay: Antitumor effect in human-derived blood cancer cell line (MV-4-11) subcutaneous transplantation model (in vivo); set-up: species or system nude mouse (BALB/cA Jcl-nu/nu); settings: oral, 100 mg/kg/day once per day for 14 days; RTV vs control group, Student-t test, p<0.05
Experimental: A human-derived blood cancer cell line MV-4-11 was transplanted subcutaneously into a nude mouse (BALB/cA Jcl-nu/nu, CLEA Japan, Inc.), and at the time when the tumor volume of the nude mouse on which the engrafted tumor reached 100 to 300 mm^3, four mice were assigned to each group by random stratification so that the average of the tumor volumes of each group was uniform (day 0), and the Example compound was orally administered daily at 100 mg/kg/day once per day for 14 days. Example Compound dosing solutions were prepared using 0.5% HPMC.
An electric balance for animals was used in body weight measurement. Rate of change in body weight on day n (BWCn) from body weight on day n (BWn) was calculated according to the following equation.
Rate of change in body weight BWCn (%)=(BWn−BW0)/BW0×100
Tumor volume (TV) was calculated according to the following equation by sandwiching and measuring the major axis and the minor axis with a digital caliper.
Tumor volume (mm^3)=Major axis (mm)×Minor axis (mm)×Minor axis (mm)/2
In order to compare the chronological transition of proliferation of tumor for the administration of each compound, relative tumor volume (RTV) setting the tumor volume at the time of grouping as 1 as the tumor proliferation rate was calculated according to the following formula, and the transition of the average value of RTV of each individual are shown in FIGS. 1 to 4.
RTV=(tumor volume at the day of tumor volume measurement)/(tumor volume at the time of the grouping)

HCC 1806 cells = assay: Cell proliferation inhibitory effect on human breast cancer cell line; assay type: cell-based; settings: HCC1806, 72 h, crystal violet, read-out: Cell growth suppression IC50
Experimental: Human derived breast cancer cell line HCC 1806 cells (American Type Culture Collection, ATCC) were daily passaged at a cell density not exceeding 80% in ATCC recommended Roswell Park Memorial Institute medium (RPMI-1640) containing 10% fetal bovine serum (FBS). In order to start the test of cell proliferation inhibitory activity, HCC 1806 cells were suspended in the above medium, after seeing at 180 μL in each well of a 96-well flat bottom plate so that the number of cells per well was 2,000, the cells were cultured at 37° C. for 1 day in an incubator containing 5% carbon dioxide gas.
On the next day, the Example compound was dissolved in DMSO, and 20 μL of a drug additive solution diluted serially with distilled water to 10 times of the final concentration was added to each well of the culture plate of the cells, and the cells were cultured at 37° C. for 72 hours in an incubator containing 5% carbon dioxide gas. After culturing for 72 hours, 20 μL of glutaraldehyde was added to each well and allowed to stand for 30 minutes, then the plate was washed 10 times with water and was dried. 100 μL of a stain solution (0.05% crystal violet in a 20% methanol solution) was added to each well and allowed to stand for 30 minutes, then the plate was washed 10 times with water and was dried. 100 μL of an extract solution (0.1 N NaH2PO4: 100% ethanol=1:1) was added to each well and mixed, and the mixture was measured at a wavelength of 540 nm using a plate reader (MTP-450 manufactured by Corona Electric Co., Ltd.).
The growth inhibition rate was calculated from the following formula, and the concentration (IC50 (μM)) of a compound inhibiting 50% was determined.
Growth inhibition rate (%){(C-B)−(T-B)}(C-B)×100
T: Absorbance of well to which Example compound was added
C: Absorbance of wells to which no Example compound was added
B: Absorbance of wells to which no cell was added

[2] = system: HCT116 (Human large intestine cancer cell line); assay: Effect of combination of sulfonamide compound and other antitumor agent (CellTiter-Glo, combination index): HCT116; assay type: cell-based
Experimental: (§1) Each cell line was seeded at 90 L/well to a 96-well culture plate (Thermo Fisher Scientific, Inc.) according to the above tables. The cell-seeded plate was cultured in an incubator set to 37° C. and 500 CO2. On the day following seeding, varying concentrations of the sulfonamide compound and the other antitumor agent were added in combination to the cells. […] The serial dilutions of each compound, or DW was added at 5μL/well to the plate such that each compound and DW, or the sulfonamide compound and the other antitumor agent were combined. […] The plate after the addition was cultured at 37° C. for 3 days under 5% CO2 conditions.
(§2) Three days later, CellTiter-Glo(R) 2.0 Reagent (Promega Corporation) was added at 100 μL/well, and the amount of luminescence was measured using a plate reader EnSpire(R) Multimode Plate Reader (PerkinElmer Co., Ltd.).
(§3) An average value from 3 wells was calculated as to each drug condition from the obtained data, and cell survival rate normalized against control wells supplemented with the vehicle (DW) was calculated. A Fa (fractional inhibition) value was calculated by subtracting the cell survival rate from 1.

[3] = system: A549 (Human lung cancer cell line); assay: Effect of combination of sulfonamide compound and other antitumor agent (CellTiter-Glo, combination index): A549
[4] = system: CFPAC-1 (Human pancreatic cancer cell line); assay: Effect of combination of sulfonamide compound and other antitumor agent (CellTiter-Glo, combination index): CFPAC-1;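 further: cells exposed to both agents together for 3 days, viability read by luminescence, normalized to vehicle-treated control wells, mean of triplicate wells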
Experimental: as §1, §2, §3

[5] = Example Compound 5 567 nM + Prexasertib 10.7 nM
[6] = Example Compound 5 851 nM + Prexasertib 16.1 nM
[7] = Example Compound 14 1000 nM + Prexasertib 7.14 nM
[8] = Example Compound 14 1500 nM + Prexasertib 10.7 nM
[9] = Example Compound 14 2250 nM + Prexasertib 16.1 nM
[10] = Example Compound 209A 187 nM + Prexasertib 7.13 nM
[11] = Example Compound 209A 281 nM + Prexasertib 10.7 nM
[12] = Example Compound 209A 421 nM + Prexasertib 16.1 nM
[13] = HCT116, Example Compound 235A 317 nM combined with Prexasertib 7.15 nM, molar ratio 1:0.02255
[14] = HCT116, Example Compound 235A 475 nM combined with Prexasertib 10.7 nM, molar ratio 1:0.02255
[15] = HCT116, Example Compound 235A 712 nM combined with Prexasertib 16.1 nM, molar ratio 1:0.02255
[16] = Example Compound 14 874 nM + Prexasertib 1.97 nM
[17] = Example Compound 14 1310 nM + Prexasertib 2.96 nM
[18] = Example Compound 14 1970 nM + Prexasertib 4.45 nM
[19] = Example Compound 209A 188 nM + Prexasertib 1.97 nM
[20] = Example Compound 209A 282 nM + Prexasertib 2.96 nM
[21] = Example Compound 235A 231 nM + Prexasertib 1.97 nM
[22] = Example Compound 235A 346 nM + Prexasertib 2.96 nM
[23] = Example Compound 235A 520 nM + Prexasertib 4.44 nM
[24] = Example Compound 5 311 nM + Prexasertib 1.89 nM
[25] = Example Compound 5 466 nM + Prexasertib 2.84 nM
[26] = Example Compound 5 700 nM + Prexasertib 4.26 nM
[27] = Example Compound 14 616 nM + Prexasertib 1.89 nM
[28] = Example Compound 14 925 nM + Prexasertib 2.84 nM
[29] = Example Compound 14 1390 nM + Prexasertib 4.27 nM
[30] = Example Compound 209A 151 nM + Prexasertib 1.90 nM
[31] = Example Compound 209A 226 nM + Prexasertib 2.84 nM
[32] = Example Compound 235A 214 nM + Prexasertib 1.89 nM
[33] = Example Compound 235A 321 nM + Prexasertib 2.84 nM
[34] = Example Compound 235A 481 nM + Prexasertib 4.26 nM

## Cc1c(Cl)ccc(F)c1[C@@H](C)[C@H](NS(=O)(=O)c1ccc(Cl)c2c1OCCC2(C)O)c1n[nH]c(=O)o1 (single isomer, unassigned) [Example 209A]
[1]
  IC50: 0.1 µM
MV-4-11
  antitumor effect (relative tumor volume, RTV): antitumor effect

## Cc1ccc(F)c([C@@H](C)[C@H](NS(=O)(=O)c2ccc(Cl)c3c2OCCC3O)c2n[nH]c(=O)o2)c1C (single isomer, unassigned) [Example 235A]
[1]
  IC50: 0.08 µM
MV-4-11
  antitumor effect (relative tumor volume, RTV): antitumor effect

## CC(=O)OC1(C)CCOc2c(S(=O)(=O)N[C@H](c3n[nH]c(=O)o3)[C@H](C)c3c(F)ccc(C)c3C)ccc(Cl)c21 (stereo partly drawn) [Example 95, 5-chloro-8-(N-((1S,2R)-2-(6-fluoro-2,3-dimethylphenyl)-1-(5-oxo-4,5-dihydro-1,3,4-oxadiazol-2-yl)propyl)sulfamoyl)-4-methylchroman-4-ylacetate]
[1]
  IC50: 0.14 µM
HCC 1806 cells
  IC50: 0.14 µM

## Cc1c(Cl)ccc(F)c1[C@@H](C)[C@H](NS(=O)(=O)c1ccc(Cl)cc1C(N)=O)c1n[nH]c(=O)o1 [Example 14, 5-chloro-2-(N-((1S,2R)-2-(3-chloro-6-fluoro-2-methylphenyl)-1-(5-oxo-4,5-dihydro-1,3,4-oxadiazol-2-yl)propyl)sulfamoyl)benzamide]
[1]
  IC50: 0.25 µM
MV-4-11
  antitumor effect (relative tumor volume, RTV): antitumor effect

## Cc1c(Cl)ccc(F)c1[C@@H](C)[C@H](NS(=O)(=O)c1ccc(Cl)c2c1OCCC2(C)O)c1n[nH]c(=O)o1 (single isomer, unassigned) [Example 228A]
MV-4-11
  antitumor effect (relative tumor volume, RTV): antitumor effect

## COc1c(S(=O)(=O)N[C@H](c2n[nH]c(=O)o2)[C@H](C)c2c(F)ccc(C)c2C)ccc(Cl)c1C(C)O (stereo partly drawn) [Example 204, 4-chloro-N-((1S,2R)-2-(6-fluoro-2,3-dimethylphenyl)-1-(5-oxo-4,5-dihydro-1,3,4-oxadiazol-2-yl)propyl)-3-(1-hydroxyethyl)-2-methoxybenzenesulfonamide]
[1]
  IC50: 0.15 µM
HCC 1806 cells
  IC50: 0.15 µM

## COc1cccc(OCCCN)c1-c1cc(Nc2cnc(C#N)cn2)n[nH]1 [Prexasertib, prexasertib]
[2]; [5]
  CI value: 0.289
  Fa value: 0.7563
[2]; [6]
  CI value: 0.180
  Fa value: 0.9499
[2]; [7]
  CI value: 0.535
  Fa value: 0.3054
[2]; [8]
  CI value: 0.208
  Fa value: 0.8469
[2]; [9]
  CI value: 0.174
  Fa value: 0.9453
[2]; [10]
  CI value: 0.792
  Fa value: 0.1703
[2]; [11]
  CI value: 0.230
  Fa value: 0.8191
[2]; [12]
  CI value: 0.173
  Fa value: 0.9441
[2]; [13]
  CI value: 0.557
  Fa value: 0.3131
[2]; [14]
  CI value: 0.224
  Fa value: 0.8595
[2]; [15]
  CI value: 0.197
  Fa value: 0.9459
[3]; [16]
  CI value: 0.277
  Fa value: 0.4973
[3]; [17]
  CI value: 0.193
  Fa value: 0.7864
[3]; [18]
  CI value: 0.177
  Fa value: 0.8986
[3]; [19]
  CI value: 0.258
  Fa value: 0.5015
[3]; [20]
  CI value: 0.189
  Fa value: 0.7685
[3]; [21]
  CI value: 0.331
  Fa value: 0.4315
[3]; [22]
  CI value: 0.191
  Fa value: 0.7784
[3]; [23]
  CI value: 0.174
  Fa value: 0.8915
[4]; [24]
  CI value: 0.579
  Fa value: 0.3644
[4]; [25]
  CI value: 0.413
  Fa value: 0.6946
[4]; [26]
  CI value: 0.525
  Fa value: 0.7564
[4]; [27]
  CI value: 0.886
  Fa value: 0.2455
[4]; [28]
  CI value: 0.452
  Fa value: 0.6771
[4]; [29]
  CI value: 0.514
  Fa value: 0.7725
[4]; [30]
  CI value: 0.735
  Fa value: 0.3163
[4]; [31]
  CI value: 0.558
  Fa value: 0.6872
[4]; [32]
  CI value: 0.645
  Fa value: 0.3469
[4]; [33]
  CI value: 0.344
  Fa value: 0.6687
[4]; [34]
  CI value: 0.372
  Fa value: 0.7578

## Cc1c(Br)ccc(F)c1[C@@H](C)[C@H](NS(=O)(=O)c1ccc(Cl)c2c1OCCC2(C)O)c1n[nH]c(=O)o1 (single isomer, unassigned) [Example 222A]
[1]
  IC50: 0.08 µM
MV-4-11
  antitumor effect (relative tumor volume, RTV): antitumor effect
